Measured values taken from ChEMBL document CHEMBL1156294, “Novel inhibitors of basal glucose transport as potential anticancer agents” (2010).

Tests used:
Assay type in all cases: functional
[1] = system: NCI-H1299; assay: Inhibition of basal glucose transport in human H1299 cells assessed as inhibition of [3H]2-deoxyglucose uptake at 30 uM after 30 mins by scintillation counting relative to control
[2] = system: MCF7; assay: Inhibition of basal glucose transport in human MCF7 cells assessed as inhibition of [3H]2-deoxyglucose uptake at 30 uM after 30 mins by scintillation counting
[3] = system: HeLa; assay: Inhibition of basal glucose transport in human HeLa cells assessed as inhibition of [3H]2-deoxyglucose uptake at 30 uM after 30 mins by scintillation counting
[4] = system: RKO; assay: Inhibition of basal glucose transport in human RKO cells assessed as inhibition of [3H]2-deoxyglucose uptake at 30 uM after 30 mins by scintillation counting
[5] = Cytotoxicity against human H1299 cells at 30 uM after 48 hrs by MTT assay relative to control; conditions: NCI-H1299, 48 h, read-out: GI

SMILES | inhibition at 30 µM [1] [%] | inhibition at 30 µM [2] [%] | inhibition at 30 µM [3] [%] | inhibition at 30 µM [4] [%] | inhibition of growth at 30 µM [5] [%]
COc1cccc(OC(=O)c2cc(O)c(O)c(O)c2)c1OC(=O)c1cc(O)c(O)c(O)c1 | 58.4 | 33 | 46.3 | 57.2 | 36
O=C(Oc1ccc(Cl)cc1OC(=O)c1cc(O)c(O)c(O)c1)c1cc(O)c(O)c(O)c1 | 84.4 | – | – | – | –
O=C(Oc1ccccc1OC(=O)c1ccc(O)cc1)c1ccc(O)cc1 | 57.5 | – | – | – | –
O=C(Oc1cccc(OC(=O)c2cccc(O)c2)c1OC(=O)c1cccc(O)c1)c1cccc(O)c1 | 99.7 | – | – | – | 59.3
COc1cccc(OC(=O)c2cccc(O)c2)c1OC(=O)c1cccc(O)c1 | 79 | – | – | – | –
O=C(Oc1ccc(Cl)cc1OC(=O)c1ccccc1O)c1ccccc1O | 51.6 | – | – | – | 26.6
O=C(Oc1ccc(Cl)cc1OC(=O)c1cccc(O)c1)c1cccc(O)c1 | 93.1 | – | – | – | 44.5
COc1cccc(OC(=O)c2cc(O)cc(O)c2)c1OC(=O)c1cc(O)cc(O)c1 | 69.4 | – | – | – | –
O=C(Oc1cccc(F)c1OC(=O)c1ccccc1O)c1ccccc1O | 51 | – | – | – | –
O=C(Oc1cccc(OC(=O)c2ccc(O)cc2)c1OC(=O)c1ccc(O)cc1)c1ccc(O)cc1 | 88.7 | – | – | – | 34.8
O=C(Oc1cccc(OC(=O)c2ccc(O)c(O)c2)c1OC(=O)c1ccc(O)c(O)c1)c1ccc(O)c(O)c1 | 94.7 | – | – | – | 42.2
COc1cccc(OC(=O)c2ccc(O)c(O)c2)c1OC(=O)c1ccc(O)c(O)c1 | 0 | – | – | – | 32.4
O=C(Oc1cccc(F)c1OC(=O)c1cc(O)c(O)c(O)c1)c1cc(O)c(O)c(O)c1 | 81.1 | – | – | – | –
O=C(Oc1ccccc1OC(=O)c1cc(O)c(O)c(O)c1)c1cc(O)c(O)c(O)c1 | 32.1 | – | – | – | –
COc1cc(C(=O)Oc2cccc(OC)c2OC(=O)c2cc(OC)c(OC)c(OC)c2)cc(OC)c1OC | 33.3 | – | – | – | 22.2
COc1cc(C(=O)Oc2ccc(Cl)cc2OC(=O)c2cc(OC)c(OC)c(OC)c2)cc(OC)c1OC | 1.7 | – | – | – | 20.6
COc1cc(C(=O)Oc2cccc(F)c2OC(=O)c2cc(OC)c(OC)c(OC)c2)cc(OC)c1OC | 7.9 | – | – | – | 19.6

SMILES | inhibition at 30 µM [1] [%] | inhibition at 30 µM [2] [%] | inhibition at 30 µM [3] [%] | inhibition at 30 µM [4] [%] | inhibition of growth at 30 µM [5] [%]
O=C(Oc1cccc(F)c1OC(=O)c1ccc(O)cc1)c1ccc(O)cc1 | 92.6 | – | – | – | 35.9
COc1cccc(C(=O)Oc2cccc(OC(=O)c3cccc(OC)c3)c2OC(=O)c2cccc(OC)c2)c1 | 66.2 | – | – | – | –
COc1cccc(C(=O)Oc2cccc(OC)c2OC(=O)c2cccc(OC)c2)c1 | 32.1 | – | – | – | 18.3
O=C(Oc1cccc(OC(=O)c2cc(O)cc(O)c2)c1OC(=O)c1cc(O)cc(O)c1)c1cc(O)cc(O)c1 | 98.7 | – | – | – | 41
O=C(Oc1ccc(Cl)cc1OC(=O)c1cc(O)cc(O)c1)c1cc(O)cc(O)c1 | 95.2 | – | – | – | 38.8
O=C(Oc1cccc(F)c1OC(=O)c1cc(O)cc(O)c1)c1cc(O)cc(O)c1 | 94 | – | – | – | 35
O=C(Oc1cccc(OC(=O)c2cc(O)c(O)c(O)c2)c1OC(=O)c1cc(O)c(O)c(O)c1)c1cc(O)c(O)c(O)c1 | 86.1 | 60.4 | 36 | 58.1 | 39.9
COc1cc(C(=O)Oc2cccc(OC(=O)c3cc(OC)c(OC)c(OC)c3)c2OC(=O)c2cc(OC)c(OC)c(OC)c2)cc(OC)c1OC | 41.1 | – | – | – | –
O=C(Oc1ccc(Cl)cc1OC(=O)c1ccc(O)c(O)c1)c1ccc(O)c(O)c1 | 94.4 | – | – | – | 45.2
O=C(Oc1cccc(F)c1OC(=O)c1ccc(O)c(O)c1)c1ccc(O)c(O)c1 | 88.7 | – | – | – | 41.5
COc1cccc(OC)c1C(=O)Oc1cccc(OC(=O)c2c(OC)cccc2OC)c1OC(=O)c1c(OC)cccc1OC | 75.8 | – | – | – | –
COc1ccc(C(=O)Oc2cccc(OC(=O)c3ccc(OC)c(OC)c3)c2OC(=O)c2ccc(OC)c(OC)c2)cc1OC | 0 | – | – | – | 10
O=C(Oc1cccc(OC(=O)c2ccccc2O)c1OC(=O)c1ccccc1O)c1ccccc1O | 74.7 | – | – | – | –
COc1cccc(OC(=O)c2ccccc2O)c1OC(=O)c1ccccc1O | 50.5 | – | – | – | 18
COc1cccc(OC(=O)c2ccc(O)cc2)c1OC(=O)c1ccc(O)cc1 | 86.5 | – | – | – | 36.6
O=C(Oc1ccc(Cl)cc1OC(=O)c1ccc(O)cc1)c1ccc(O)cc1 | 79 | – | – | – | –
